Reference: patent EP4707280A1, “1,4-CINEOLE DERIVATIVE AND INTERMEDIATE THEREOF, HERBICIDE CONTAINING SAID DERIVATIVE AS ACTIVE INGREDIENT, METHOD FOR USING HERBICIDE, AND METHOD FOR PREPARING AGROCHEMICAL COMPOSITION” (HOKKO CHEMICAL INDUSTRY CO., LTD., priority 2023, dated 2024)

How the values were obtained:
Assay type in all cases: in vivo
[1] = test system: Echinochloa crus-galli var. formosensis; experiment: Test Example 1: herbicidal effect test by soil application in paddy rice; conditions: Echinochloa crus-galli, soil, 336 h; 120 g active ingredient per 10 ares; applied immediately after sowing, flooded pots; 14 days after application; read-out: weed inhibition rate
In short: (§1)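 Weeds sown 0–1 cm deep (30 seeds each) into fertilized, puddled paddy soil in Wagner pots. Pots are flooded immediately, water held near 3 cm, and the diluted emulsifiable concentrate is dripped in at once, delivering 120 g active ingredient per 10 ares under glass-greenhouse management.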

[2] = test system: Scirpus juncoides; experiment: as above; conditions: Schoenoplectiella juncoides, soil, 336 h; 120 g active ingredient per 10 ares; applied immediately after sowing, flooded pots; 14 days after application; read-out: weed inhibition rate
In short: as §1

[3] = test system: Echinochloa crus-galli var. formosensis; experiment: Test Example 2: herbicidal effect test by application during growth period of paddy rice; conditions: Echinochloa crus-galli; 120 g per 10 ares; applied seven days after sowing, flooded pots; 14 days after application; read-out: weed inhibition rate
In short: (§2)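 Paddy soil in flooded pots (water depth about 3 cm) was sown with weed seeds and kept in a glass greenhouse. Seven days after sowing, a diluted emulsifiable concentrate was applied by dropper at 120 g active ingredient per 10 ares. Weed inhibition was evaluated 14 days after application, in duplicate.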

[4] = test system: Scirpus juncoides; experiment: as above; conditions: Schoenoplectiella juncoides; 120 g per 10 ares; applied seven days after sowing, flooded pots; 14 days after application; read-out: weed inhibition rate
In short: as §2

[5] = test system: Digitaria ciliaris; experiment: Test Example 3: herbicidal effect test by soil application in upland field; conditions: Digitaria ciliaris, 120 g per 10 ares, sprayed one day after sowing, 14 days after application, read-out: weed inhibition rate
In short: (§3)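 Pre-emergence test: seeds mixed into top 1 cm of alluvial loam upland soil in pots; emulsifiable concentrate diluted in water sprayed on soil one day after sowing at 100 L/10 a, 120 g a.i./10 a. Weed inhibition rate (%) scored at 14 days, in duplicate.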

[6] = test system: Echinochloa crus-galli; experiment: as above; conditions: Echinochloa crus-galli, 120 g per 10 ares, sprayed one day after sowing, 14 days after application, read-out: weed inhibition rate
In short: as §3

[7] = test system: Digitaria ciliaris; experiment: Test Example 4: herbicidal effect test by stem and leaf treatment in upland field; conditions: Digitaria ciliaris; 120 g per 10 ares; sprayed seven days after sowing, upland soil; 14 days after application; read-out: weed inhibition rate
[8] = test system: Echinochloa crus-galli; experiment: as above; conditions: Echinochloa crus-galli; 120 g per 10 ares; sprayed seven days after sowing, upland soil; 14 days after application; read-out: weed inhibition rate
[9] = test system: Echinochloa crus-galli var. formosensis; experiment: Test Example 5: herbicidal effect test by soil application in paddy rice (low dose); conditions: Echinochloa crus-galli, soil, 336 h; 7.5 g per 10 ares; applied immediately after sowing, flooded pots; 14 days after application; read-out: weed inhibition rate
In short: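 Paddy-soil pots, weeds sown 0–1 cm deep and flooded to about 3 cm in a greenhouse. Emulsifiable concentrate diluted in water and dropped in right after sowing at 7.5 g active ingredient per 10 ares. Duplicates; effect scored 14 days after application.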

[10] = test system: Echinochloa crus-galli var. formosensis; experiment: Test Example 6: herbicidal effect test by application during growth period of paddy rice (low dose); conditions: Echinochloa crus-galli; 7.5 g per 10 ares; applied seven days after sowing, flooded pots; 14 days after application; read-out: weed inhibition rate
In short: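 Low-dose water application, 7.5 g a.i. per 10 ares, given by dropper into flooded pots (about 3 cm depth) 7 days after sowing of 30 weed seeds each at 0–1 cm. Evaluation of inhibition (%) took place 14 days later, duplicate per rate.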

[11] = test system: Digitaria ciliaris; experiment: Test Example 7: herbicidal effect test by soil application in upland field (low dose); conditions: Digitaria ciliaris, 7.5 g per 10 ares, sprayed one day after sowing, 14 days after application, read-out: weed inhibition rate
In short: (§4)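 Upland alluvial loam pots, seeds mixed into top 1 cm of soil; one day after sowing, diluted emulsifiable concentrate sprayed on soil at 100 L/10 a, giving 7.5 g active ingredient/10 a. Duplicate pots; weed inhibition rate (%) scored 14 days after application.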

[12] = test system: Echinochloa crus-galli; experiment: as above; conditions: Echinochloa crus-galli, 7.5 g per 10 ares, sprayed one day after sowing, 14 days after application, read-out: weed inhibition rate
In short: as §4

[13] = test system: Digitaria ciliaris; experiment: Test Example 8: herbicidal effect test by stem and leaf treatment in upland field (low dose); conditions: Digitaria ciliaris; 7.5 g per 10 ares; sprayed seven days after sowing, upland soil; 14 days after application; read-out: weed inhibition rate
[14] = test system: Echinochloa crus-galli; experiment: as above; conditions: Echinochloa crus-galli; 7.5 g per 10 ares; sprayed seven days after sowing, upland soil; 14 days after application; read-out: weed inhibition rate

CC(C)[C@]12C[C@@H](OCc3cccs3)[C@](C)(C[C@@H]1Cl)O2 [1-661, (1R,2S,4S,5R)-2-chloro-1-isopropyl-4-methyl-5-(2-thienylmethoxy)-7-oxabicyclo[2.2.1]heptane]
≥ 80%: pest or weed control at 1200 g/ha [1] | pest or weed control at 1200 g/ha [2] | inhibition at 1200 g/ha [3] | inhibition at 1200 g/ha [4] | inhibition at 1200 g/ha [5] | inhibition at 1200 g/ha [6] | inhibition at 1200 g/ha [7] | inhibition at 1200 g/ha [8] | inhibition at 75 g/ha [9] | inhibition at 75 g/ha [10] | inhibition at 75 g/ha [11] | inhibition at 75 g/ha [12] | inhibition at 75 g/ha [13] | inhibition at 75 g/ha [14]

CC(C)C12C=CC(C)(O1)C(OCc1ccccn1)C2 (stereo not shown) [3-755, 2-[(1-methyl-4-isopropyl-7-oxabicyclo[2.2.1]hept-5-en-2-yl)oxymethyl]pyridine]
≥ 80%: pest or weed control at 1200 g/ha [1] | pest or weed control at 1200 g/ha [2] | inhibition at 1200 g/ha [3] | inhibition at 1200 g/ha [4] | inhibition at 1200 g/ha [5] | inhibition at 1200 g/ha [6] | inhibition at 1200 g/ha [7] | inhibition at 1200 g/ha [8] | inhibition at 75 g/ha [9] | inhibition at 75 g/ha [10] | inhibition at 75 g/ha [11] | inhibition at 75 g/ha [12] | inhibition at 75 g/ha [13] | inhibition at 75 g/ha [14]

CC(C)[C@]12C[C@@H](OCc3c(F)cccc3Cl)[C@](C)(C[C@@H]1Cl)O2 [1-653, (1R,2S,4S,5R)-2-chloro-5-[(2-chloro-6-fluoro-phenyl)methoxy]-1-isopropyl-4-methyl-7-oxabicyclo[2.2.1]heptane]
≥ 80%: pest or weed control at 1200 g/ha [1] | pest or weed control at 1200 g/ha [2] | inhibition at 1200 g/ha [3] | inhibition at 1200 g/ha [4] | inhibition at 1200 g/ha [5] | inhibition at 1200 g/ha [6] | inhibition at 1200 g/ha [7] | inhibition at 1200 g/ha [8] | inhibition at 75 g/ha [9] | inhibition at 75 g/ha [10] | inhibition at 75 g/ha [11] | inhibition at 75 g/ha [12] | inhibition at 75 g/ha [13] | inhibition at 75 g/ha [14]

CC(C)C12CC(OCc3ccccc3Br)C(C)(CC1I)O2 (stereo not shown) [1-1427, 5-[(2-bromophenyl)methoxy]-2-iodo-1-isopropyl-4-methyl-7-oxabicyclo[2.2.1]heptane]
≥ 80%: pest or weed control at 1200 g/ha [1] | pest or weed control at 1200 g/ha [2] | inhibition at 1200 g/ha [3] | inhibition at 1200 g/ha [4] | inhibition at 1200 g/ha [5] | inhibition at 1200 g/ha [6] | inhibition at 1200 g/ha [7] | inhibition at 1200 g/ha [8] | inhibition at 75 g/ha [9] | inhibition at 75 g/ha [10] | inhibition at 75 g/ha [11] | inhibition at 75 g/ha [12] | inhibition at 75 g/ha [13] | inhibition at 75 g/ha [14]

CC(C)[C@]12CC(OCc3ccccc3)[C@](C)(C[C@@H]1Cl)O2 (mixture of isomers) [1-8, (1R,2S,4S,SR)-5-benzyloxy-2-chloro-1-isopropyl-4-methyl-7-oxabicyclo[2.2.1]heptane]
≥ 80%: pest or weed control at 1200 g/ha [1] | pest or weed control at 1200 g/ha [2] | inhibition at 1200 g/ha [3] | inhibition at 1200 g/ha [4] | inhibition at 1200 g/ha [5] | inhibition at 1200 g/ha [6] | inhibition at 1200 g/ha [7] | inhibition at 1200 g/ha [8] | inhibition at 75 g/ha [9] | inhibition at 75 g/ha [10] | inhibition at 75 g/ha [11] | inhibition at 75 g/ha [12] | inhibition at 75 g/ha [13] | inhibition at 75 g/ha [14]

CC(C)[C@]12C[C@@H](OCc3c(F)cccc3Br)[C@](C)(C[C@@H]1I)O2 [1-1614, (1R,2S,4S,5R)-5-[(2-bromo-6-fluoro-phenyl)methoxy]-2-iodo-1-isopropyl-4-methyl-7-oxabicyclo[2.2.1]heptane]
≥ 80%: pest or weed control at 1200 g/ha [1] | pest or weed control at 1200 g/ha [2] | inhibition at 1200 g/ha [3] | inhibition at 1200 g/ha [4] | inhibition at 1200 g/ha [5] | inhibition at 1200 g/ha [6] | inhibition at 1200 g/ha [7] | inhibition at 1200 g/ha [8] | inhibition at 75 g/ha [9] | inhibition at 75 g/ha [10] | inhibition at 75 g/ha [11] | inhibition at 75 g/ha [12] | inhibition at 75 g/ha [13] | inhibition at 75 g/ha [14]

CC(C)C12C=CC(C)(O1)C(OCc1cccs1)C2 (stereo not shown) [3-756, 1-isopropyl-4-methyl-5-(2-thienylmethoxy)-7-oxabicyclo[2.2.1]hept-2-ene]
≥ 80%: pest or weed control at 1200 g/ha [1] | pest or weed control at 1200 g/ha [2] | inhibition at 1200 g/ha [3] | inhibition at 1200 g/ha [4] | inhibition at 1200 g/ha [5] | inhibition at 1200 g/ha [6] | inhibition at 1200 g/ha [7] | inhibition at 1200 g/ha [8] | inhibition at 75 g/ha [9] | inhibition at 75 g/ha [10] | inhibition at 75 g/ha [11] | inhibition at 75 g/ha [12] | inhibition at 75 g/ha [13] | inhibition at 75 g/ha [14]

CC(C)C12C=CC(C)(O1)C(OCc1ccccc1)C2 (stereo not shown) [3-752, 4-methyl-5-phenylmethoxy-1-isopropyl-7-oxabicyclo[2.2.1]hept-2-ene]
≥ 80%: pest or weed control at 1200 g/ha [1] | pest or weed control at 1200 g/ha [2] | inhibition at 1200 g/ha [3] | inhibition at 1200 g/ha [4] | inhibition at 1200 g/ha [5] | inhibition at 1200 g/ha [6] | inhibition at 1200 g/ha [7] | inhibition at 1200 g/ha [8] | inhibition at 75 g/ha [9] | inhibition at 75 g/ha [10] | inhibition at 75 g/ha [11] | inhibition at 75 g/ha [12] | inhibition at 75 g/ha [13] | inhibition at 75 g/ha [14]
